Legend:
[1] = test system: Podosphaera xanthii (syn. Sphaerotheca fuliginea); assay: Foliar spray on powdery mildew-infected cucumber plants; conditions: for Percentage of reduction of cucumber powdery mildew: Table 5, 1/500 (w/v) in water
Experimental: Compositions 1 to 4 (Table 1) were applied by foliar spray 7 to 10 days after the inoculation of cucumber plants with powdery mildew spores (infected with 3-4×10^4 spores/mL of Podosphaera xanthii (syn. Sphaerotheca fuliginea)).
Each composition was sprayed once on cucumber leaves and disease assessment was performed after 3, 6, 8 and 12 days. […] For each composition, the assay was repeated three times and the results illustrated in Table 2 represent the average of these three assays.
As previously indicated, some garlic-based compositions are described in U.S. Pat. No. 6,231,865. Particular attention is paid to Samples 1 to 4 disclosed in column 2 of this document.

Oidium neolycopersici = assay: Semi-commercial greenhouse trial, tomato powdery mildew; type: in vivo
Experimental: Surface-sterilized tomato seeds (cv. Trust) were sown in rock wool cubes and fertilized daily with a standard nutrient solution. Seedlings were grown for 4 wk on a greenhouse bench at 21-24° C. with a 16 h photoperiod and transplanted (at the early flower stage) into rook wool in 13.5 L plastic bags perforated on the upper face in order to insert two rock wool cubes per bag. Plants at the 12-15 leaf stage were inoculated by rubbing a piece of tomato leaf heavily infected by Oidium neolycopersici onto leaf 7. At the onset of the first powdery mildew colonies (after 7-10 days), plants were sprayed with each formulation or with sulphur (the currently applied fungicide in tomato greenhouses) while controls were sprayed with water. The treatments were arranged in a randomized complete block design with 6 plants per treatment and three replications. All treatments with the garlic compositions were repeated once a week.
The treatments included: 1) Dehydrated garlic extracts-chitosan lactate (composition 1); 2) Dehydrated garlic extracts alone (composition 2); 3) chitosan lactate alone (composition 3); 4) sulphur; 5) water; and 6) water+vegetable oil (composition 4).
Disease severity was assessed three and six days after each treatment and evaluated as percentage of leaf area covered by powdery mildew. The assessments were made on a “low” leaf level (about leaf 3), a “middle” leaf level (leaves 6 and 9) and a “high” leaf level (about leaf 12) on three leaves for each level. For each treatment, […] yield was evaluated on 3 plants per replication. Data were analyzed by analysis of variance using the SAS procedure (SAS Inst., Inc., Cary, N.C.). The LSMEANS option was used to generate the probability of difference between all the variables in the study. Single degrees of freedom orthogonal contrasts were used to compare effects of the composition vs. chitosan lactate alone, the composition vs. water or water and oil, and the composition vs. sulphur. It is of note that powdery mildew on tomato is much less aggressive than it is on cucumber.

[2] = 3 plants of tomato, cv. Trust, 14 weeks after harvest

SMILES	Percentage of reduction of cucumber powdery mildew ([1]; 3 days)	Percentage of reduction of cucumber powdery mildew ([1]; 6 days)	Percentage of reduction of cucumber powdery mildew ([1]; 8 days)	Percentage of reduction of cucumber powdery mildew ([1]; 12 days)	Phytotoxicity on cucumber plants ([1]; days following the application)	Average fruit weight, class 1 (Oidium neolycopersici; [2])	Total fruit yield, class 1 (Oidium neolycopersici; [2])	Total number of fruits, class 1 (Oidium neolycopersici; [2])	Disease incidence after 14 weeks (% of infection) (Oidium neolycopersici; percentage of leaf area covered by powdery mildew, tomato cv. Trust)	Reduction of the incidence of powdery mildew in tomato (disease control) (Oidium neolycopersici; tomato greenhouse trial)
CCCCCCCCCCCCOS(=O)(=O)[O-].[Na+] [Sodium dodecyl sulfate]	100%	100%	100%	95%	phytoxicity developed					
S1SSSSSSS1 [Sulphur]						164 ± 3 g	16.3 ± 1.1 Kg/m^2	100 ± 5.0 tomatos/m^2	0.28 ± 0.08 % of infection	~100%
